Data as given in patent publication US10098949B2, “Adsorption of immunopotentiators to insoluble metal salts” (GlaxoSmithKline Biologicals SA, priority 2010, dated 2018).
Read-outs that look alike come from different tables or passages of the source.

Assays:
[1] = tested on: serogroup B meningococcus; format: in vivo
[2] = Solubility in water and in histidine buffer; format: physicochemical; conditions: pH 6.8
human TLR7 = target: T1, human TLR7 (Homo sapiens, UniProt Q9NYK1); assay: HEK293 human TLR7 NF-κB luciferase reporter assay; format: cell-based; conditions: HEK293 cells
T1 construct: expressed in transfected cells; host or cells: HEK293
T1 sequence (Q9NYK1 27-1049): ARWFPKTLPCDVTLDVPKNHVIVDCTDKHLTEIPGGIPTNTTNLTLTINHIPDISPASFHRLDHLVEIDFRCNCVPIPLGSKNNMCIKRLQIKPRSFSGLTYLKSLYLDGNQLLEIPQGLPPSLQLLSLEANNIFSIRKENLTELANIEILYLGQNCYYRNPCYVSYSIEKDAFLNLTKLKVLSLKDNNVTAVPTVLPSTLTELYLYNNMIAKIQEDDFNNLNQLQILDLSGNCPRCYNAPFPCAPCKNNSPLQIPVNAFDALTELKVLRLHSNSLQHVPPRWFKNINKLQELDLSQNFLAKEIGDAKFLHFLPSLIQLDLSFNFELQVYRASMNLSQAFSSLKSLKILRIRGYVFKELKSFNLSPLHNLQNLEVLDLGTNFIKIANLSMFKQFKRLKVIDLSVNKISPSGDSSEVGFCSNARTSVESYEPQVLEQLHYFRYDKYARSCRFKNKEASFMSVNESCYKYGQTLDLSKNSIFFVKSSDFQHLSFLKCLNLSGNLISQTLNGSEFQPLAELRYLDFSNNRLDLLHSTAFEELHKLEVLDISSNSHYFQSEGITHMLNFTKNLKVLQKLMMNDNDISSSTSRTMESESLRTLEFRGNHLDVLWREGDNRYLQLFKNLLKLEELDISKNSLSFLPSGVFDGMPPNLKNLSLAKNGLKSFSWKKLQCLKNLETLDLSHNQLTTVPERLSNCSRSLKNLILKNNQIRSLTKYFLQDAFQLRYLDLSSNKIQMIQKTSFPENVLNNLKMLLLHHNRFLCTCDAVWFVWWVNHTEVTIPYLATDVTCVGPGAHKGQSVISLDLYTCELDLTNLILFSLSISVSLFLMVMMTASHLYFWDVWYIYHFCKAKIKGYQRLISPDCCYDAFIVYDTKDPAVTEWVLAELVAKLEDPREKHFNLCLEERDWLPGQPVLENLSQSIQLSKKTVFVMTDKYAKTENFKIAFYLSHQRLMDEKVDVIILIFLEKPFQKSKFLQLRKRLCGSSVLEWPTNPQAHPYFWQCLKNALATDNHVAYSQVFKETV
Protocol: The activity of this compound is assessed in an assay using HEK293 cells which are stably transfected with human TLR7 and an NF-κB-driven luciferase reporter vector (pNifty-Luciferase). As a control assay, normal HEK293 transfected with pNifty-Luc are used. Cells are cultured in DMEM supplemented with 2 mM L-glutamine, 10% heart inactivated FBS, 1% penicillin and streptomycin, 2 μg/ml puromycin and 5 μg/ml of blasticidin. Bright-Glo™ Luciferase assay buffer and substrate are supplied by Promega. Cells are plated at 25,000 cells/well in 384-well plates in a final volume of 50 μl of media. Cells are allowed to adhere to the plates after overnight (18 hours) culture at 37° C. and 5% CO2. Serially-diluted experimental and positive control compounds are then dispensed to each well and incubated for 7 hours at 37° C. and 5% CO2. Cells stimulated with DMSO alone serve as negative controls. After the incubation, 30 μl of the pre-mix assay buffer and substrate buffer are added to each well according to manufacturer's instructions. The luminescence signal is read on a CLIPR machine with an integration time of 20 seconds per plate.

splenocytes = assay: Activity in splenocytes; format: cell-based
human PBMCs = assay: Activity in human PBMCs; format: cell-based
[3] = Association with Al—H particles by confocal microscopy and flow cytometry; format: physicochemical; conditions: confocal microscopy (compound 1) or flow cytometry (compounds 2, O)
[4] = Adsorption to aluminium hydroxide (Al—H) adjuvant, supernatant by HPLC; format: physicochemical; conditions: for % adsorption to Al—H: 10 mM histidine buffer, pH 6.5; for Adsorption Efficiency to aluminum hydroxide: 3 mg/mL aluminum hydroxide, 0.5 mg/mL compound, no buffer, room temperature overnight, RP-HPLC
[5] = Muscle levels 24 hours after intramuscular injection; format: in vivo, Balb/C mice; conditions: for level of compound in muscle: 24 hours after i.m. injection
serum cytokines = conditions: in vivo
[6] = Model of in vivo desorption from Al—H; format: in vitro ADME; conditions: 37° C., after 5 hours
[7] = 5CVMB, CD-1 mice, days 0 & 14, (b) the agonist compound
[8] = SIF (simulated interstitial fluid)

SMILES | solubility in histidine buffer [2] | activity compared to resiquimod (set to 100%) (human TLR7) [%] | % adsorption to Al—H [4] | activity compared to resiquimod (set to 100%) (splenocytes) [%] | EC50 (splenocytes; Splenocyte, read-out: EC50) [µM] | SBA titer at day 28 ([1]; in vivo) | level of compound in muscle ([5]; without Al—H (free form)) | activity compared to resiquimod (set to 100%) (human PBMCs) [%] | EC50 (human PBMCs; PBMC, read-out: EC50) [µM] | other results
CCOCc1nc2c(N)nc3ccccc3c2n1CC(C)(C)O [resiquimod, reference compound] | – | – | – | – | – | – | – | – | – | SBA titer at day 28 ([1]; 5CVMB, CD-1 mice, days 0 & 14, (e) resiquimod+Al—H, positive control): 1033
CCOCc1nc2c(N)nc3ccccc3c2n1CCOCCP(=O)(O)O [Compound 7] | insoluble | 55 | – | – | – | – | – | – | – | EC50 (splenocytes): inactive; EC50 (human PBMCs): inactive
Cc1ccc(CCc2cnc3c(N)nc4cc(C)ccc4c3c2)c(C)c1 [O, reference compound] | – | – | fails to adsorb | – | – | – | – | – | – | association with Al—H particles [3]: seen as a separate population
CCCCCNc1nc(N)nc(C)c1Cc1ccc(OCCOCCC(F)(F)P(=O)(O)O)cc1OC [Compound 71, (3-(2-(4-((2-amino-4-methyl-6-(pentylamino)pyrimidin-5-yl)methyl)-3-methoxyphenoxy)ethoxy)-1,1-difluoropropyl)phosphonic Acid] | soluble | 53 | 85% | 239 | 10.5 | 1653 | undetectable | 50 | 9.5 | SBA titer at day 28 [1, 7]: 65; level of compound in muscle ([5]; +Al—H): readily detected; systemic cytokines, effect of adsorption to Al—H (serum cytokines): generally reduced or unaffected
CCCCCNc1nc(N)nc(C)c1Cc1ccc(CP(=O)(O)O)cc1 [Compound 69] | insoluble | 36 | – | – | – | – | – | – | – | EC50 (splenocytes): inactive; EC50 (human PBMCs): inactive
COCCOc1nc(N)c2nc(O)n(Cc3ccc(CP(=O)(O)O)cc3)c2n1 [Compound 6, (4-((6-amino-2-(2-methoxyethoxy)-8-oxo-7H-purin-9(8H)-yl)methyl)benzyl)phosphonic Acid] | soluble | 93 | – | 210 | 0.98 | 4016 | undetectable | 35 | 1 | SBA titer at day 28 [1, 7]: 282; compound in inguinal lymph nodes or liver ([5]; after 24 hours): could not be detected
CCCCCNc1nc(N)nc(C)c1Cc1ccc(CP(=O)(O)O)cc1OC [Compound 8] | insoluble | 81 | – | 184 | 3.1 | – | – | 50 | 10.4 | –
Cc1cc(OCCOCCOCCC(F)(F)P(=O)(O)O)ccc1CCc1cnc2c(N)nc3cc(CCC(=O)O)ccc3c2c1 [Compound 4] | – | – | 96.0% | – | – | – | – | – | – | proportion desorbed from Al—H ([6]; His buff): 4%; proportion desorbed from Al—H ([6]; Plasma/His buff): 81%; proportion desorbed from Al—H [6, 8]: 100%; compound in supernatant after mixing with aluminium hydroxide (HPLC) [4]: neither compound is observed in the supernatant
Cc1ccc2c(c1)nc(N)c1ncc(CCc3ccc(OP(=O)(O)O)cc3C)cc12 [Compound 102] | – | – | – | – | – | – | – | – | – | Adsorption Efficiency to aluminum hydroxide [4]: 85.1%; Adsorption Efficiency to aluminum hydroxide ([4]; listed as compound 102): > 80%
COCCOc1cc2c(nc(O)n2Cc2ccc(CP(=O)(O)O)cc2)c(N)n1 [Compound 67, (4-((4-amino-6-(2-methoxyethoxy)-2-oxo-2,3-dihydro-1H-imidazo[4,5-c]pyridin-1-yl)methyl)benzyl)phosphonic Acid] | soluble | 103 | 82% | 142 | 9.3 | 949 | undetectable | 59 | 0.8 | SBA titer at day 28 [1, 7]: 64; level of compound in muscle ([5]; +Al—H): readily detected; systemic cytokines, effect of adsorption to Al—H (serum cytokines): generally reduced or unaffected
Cc1cc(OCCCC(F)(F)P(=O)(O)O)ccc1CCc1cnc2c(N)nc3cc(CCC(=O)O)ccc3c2c1 [Compound 3] | – | – | 96.2% | – | – | – | – | – | – | proportion desorbed from Al—H ([6]; His buff): 5%; proportion desorbed from Al—H ([6]; Plasma/His buff): 49%; proportion desorbed from Al—H [6, 8]: 100%; compound in supernatant after mixing with aluminium hydroxide (HPLC) [4]: neither compound is observed in the supernatant
CCOCc1nc2c(N)nc3ccccc3c2n1CCOCCOCCOCCP(=O)(O)O [Compound 68, (2-(2-(2-(2-(4-amino-2-(ethoxymethyl)-1H-imidazo[4,5-c]quinolin-1-yl)ethoxy)ethoxy)ethoxy)ethyl)phosphonic Acid] | soluble | 75 | 94% | – | – | 404 | undetectable | – | – | EC50 (splenocytes): inactive; level of compound in muscle ([5]; +Al—H): readily detected; EC50 (human PBMCs): inactive; systemic cytokines, effect of adsorption to Al—H (serum cytokines): generally reduced or unaffected
